Source: publication PMC9952496, “A Novel Strategy for the Design of Aurein 1.2 Analogs with Enhanced Bioactivities by Conjunction of Cell-Penetrating Regions” (Antibiotics, 2023)
Where two headings read alike, the source gives them in different places. Residues, ends and D or L forms follow the SMILES beside them.

Experiments:
E. coli (NCTC 8739) = type: cell-based; conditions: for MIC: NCTC 8739; for MBC: NCTC 8739, 20 h
Description: (§1) The antimicrobial activity evaluation was conducted by use of MIC and MBC assays, using three Gram-positive bacteria and three Gram-negative bacteria. The peptides were dissolved in dimethyl sulfoxide (DMSO) for a final concentration series from 1 to 128 µM; 20 µmol of norfloxacin was applied as the positive control, and one µL of DMSO was used as the negative control. The bacteria were inoculated in the corresponding cultural media overnight and subcultured to the desired OD value (OD = 0.23 for Gram-positive bacteria, OD = 0.4 for Gram-negative bacteria corresponding to 5 × 10^5 CFU/mL); 20 mL of culture broth and 100 µL of subcultured bacteria were mixed before being loaded onto the plate, and 1 µL of the peptide cocktail was mixed with 99 µL of diluted bacteria in 96 wells plates and then was incubated for 20 to 24 h at 37 °C. Afterward, the OD value (λ = 550 nm) of each well was detected using a Synergy HT plate reader (Biotech, Minneapolis, MN, USA). The MIC value was the lowest concentration without bacterial growth visually. Subsequently, 10 µL of the solution in each clear well was loaded onto an agar plate and cultured for 20 h. The lowest concentration without colony growth was regarded as the MBC.

E. faecalis (NCTC 12697) = type: cell-based; conditions: for MIC: NCTC 12697; for MBC: NCTC 12697, 20 h
Description: as §1

[1] = tested on: K. pneumoniae (ATCC 43816); type: cell-based; conditions: for MIC: ATCC 43816; for MBC: ATCC 43816, 20 h
Description: as §1

MRSA (ATCC 12493) = type: cell-based; conditions: for MIC: ATCC 12493; for MBC: ATCC 12493, 20 h
Description: as §1

[2] = tested on: P. aeruginosa (ATCC 9027); type: cell-based; conditions: for MIC: ATCC 9027; for MBC: ATCC 9027, 20 h
Description: as §1

[3] = tested on: S. aureus (ATCC CRM 6538); type: cell-based; conditions: for MIC: ATCC CRM 6538; for MBC: ATCC CRM 6538, 20 h
Description: as §1

[4] = tested on: MCF-7 breast cancer cell line; type: cell-based, human
Description: (§2) The MTT test measures the anti-proliferation of the peptide by measuring MTT conversion by live cells into a formazan that cannot be dissolved in water. In this section, three cancer cell lines: human non-small-cell lung cancer cell line, NCI-H838 (ATCC-CRL-5844); human glioblastoma astrocytoma cell line, U251MG (ECACC-09063001) and human breast cancer cell line, MCF-7 (ATCC-HTB-22), were selected for the anti-proliferation study. H838 cells were cultured in Roswell Park Memorial Institute (RPMI)-1640 medium (Life Technologies, Paisley, UK) mixed with 10% (v/v) fetal bovine serum (FBS) and 1% penicillin-streptomycin (Gibco, 10,000 U/mL). U251MG and MCF-7 cells were cultured in Dulbecco’s Modified Eagle medium (DMEM) (Life Technologies, Carlsbad, CA) mixed with 10% (v/v) FBS and 1% penicillin–streptomycin (Gibco, 10,000 U/mL). The cancer cells were first seeded into the 96-well plates at a cell density of 8000 per well for 20–24 h at 37 °C. Then, the cells were starved by switching the FBS containing complete growth medium to FBS lacking serum-free medium for 4 h. Peptides were dissolved to a series of final concentrations from 10^−9 to 10^−4 M in ddH2O. After starvation, 1 μL of the peptide with 99 μL of the serum-free medium was added to the plate and then cultured for 20–24 h.; 10 µL of MTT (3-(4,5-dimethylthiazol-2-yl)-2,5-diphenyltetrazolium bromide, 5 mg/mL, Sigma, UK) were loaded into each well in the dark and incubated at 37 °C. Subsequently, the liquid in each well was removed completely before […] of DMSO was added to each well to dissolve the formazan. The plate was read at 570 nm using a Synergy HT plate reader.

[5] = tested on: NCI-H838 non-small-cell lung cancer cell line; type: cell-based, human
Description: as §2

[6] = tested on: U251MG glioblastoma astrocytoma cell line; type: cell-based, human
Description: as §2

horse erythrocytes [7] = test: Haemolytic activity evaluation; conditions: at the peptide's MIC value for E. coli; horse erythrocytes in PBS, 2 h at 37 °C, absorbance 490 nm, Triton X-100 positive control, n = 9; listed as KIL-1
Description: (§3) The hemolytic activity of the peptides on mammalian erythrocytes was examined using 2% defibrinated horse blood (TCS Biosciences Ltd., Buckinghamshire, UK). Firstly, the defibrinated horse blood was washed; 2 mL of horse blood was added into a 50 mL tube; then, 30 mL of sterilized PBS was added dropwise into the tube, and the tube was mixed in a shaking bed and then centrifuged at 930× g for 10 min. The procedure was repeated until the supernatant of the centrifuge tube was clear. Afterward, the blood cell pellet was dispersed to make a 4% suspension (v/v) by adding 50 mL of sterilized PBS. Peptides were dissolved using PBS to achieve final concentrations of 1–128 μM and then mixed with the blood cell suspensions in 1.5-mL tubes. The blood cell suspensions treated with 0.1% Triton X-100 and PBS were used as positive controls and negative controls, respectively. Then the peptide-blood mixture was incubated at 37 °C degrees for 2 h in an incubator. After incubation, the tubes were centrifuged at 930× g for 10 min, and 100 µL of the supernatants were loaded into wells of the 96-well plates. The absorbance was obtained by Synergy HT plate reader at 490 nm. The hemolytic activity was calculated using the formula, hemolysis = (absorbance of experimental groups − absorbance of negative control))/(absorbance of positive control − absorbance of negative control) × 100%.

[8] = tested on: Gram-positive bacteria biofilm; type: cell-based; conditions: range over Gram-positive bacteria
Description: (§4) The minimum biofilm inhibition and minimum biofilm eradication concentrations were obtained by use of the MBIC and MBEC assays. The anti-biofilm activity of the peptides was evaluated by use of S. aureus (ATCC 6538), MRSA (NCTC 12493), E. faecalis (NCTC 12493), E. coli (ATCC CRM 8739), K. pneumoniae (ATCC43816), and P. aeruginosa (ATCC CRM 9027).
(§5) For the MBIC assay, the bacteria were cultured in tryptic soy broth (TSB) broth with 1% glucose for Gram-positive bacteria biofilm and Luria Bertani (LB) broth with 1% glucose for Gram-negative bacteria biofilm. Bacteria were inoculated, subcultured, and diluted in the same method described before. The peptides were prepared in a concentration of 1–128 µM; 1 µL of peptide and 99 µL of subcultured bacteria were mixed in 96 well plates and cultured at 37 °C with a shear force of 200 rpm in a humid environment for 20–24 h. Then, the plate was washed with 130 µL of PBS twice, and 130 µL of methanol was added to stabilize the biofilm overnight; then, the plate was dyed with 100 mL of 0.5% crystal violet for 15 min. The stained biofilm was then washed once more and allowed to dry overnight. The stain was dissolved in acetic acid at a 30% concentration, and it was shaken for 15 min to ensure homogeneity. A Synergy HT plate reader was then used to read the plate at 595 nm. […]

Gram-positive bacteria = test: MIC assay, summary over Gram-positive bacteria; type: cell-based; conditions: range over three Gram-positive bacteria
Description: as §1

horse erythrocytes [9] = conditions: red cells of horse, 2 h
Description: as §3

[10] = tested on: Gram-negative bacteria biofilm; conditions: range over Gram-negative bacteria
Description: as §4, §5

Row | SMILES | MIC (E. coli (NCTC 8739)) | MBC (E. coli (NCTC 8739)) | MIC (E. faecalis (NCTC 12697)) | MBC (E. faecalis (NCTC 12697)) | MIC [1] | MBC [1] | MIC (MRSA (ATCC 12493)) | MBC (MRSA (ATCC 12493)) | MIC [2] | MBC [2] | MIC [3] | MBC [3] | IC50 [4] | IC50 [5] | IC50 [6] | other results
1 | CC[C@H](C)[C@H](NC(=O)[C@H](CCCCN)NC(=O)[C@H](CCCCN)NC(=O)[C@@H](NC(=O)[C@@H](NC(=O)[C@H](CCCCN)NC(=O)[C@H](CCCCN)NC(=O)[C@@H](NC(=O)[C@@H](NC(=O)[C@H](CC(=O)O)NC(=O)[C@H](Cc1ccccc1)NC(=O)[C@H](CC(C)C)NC(=O)CN)[C@@H](C)CC)[C@@H](C)CC)[C@@H](C)CC)[C@@H](C)CC)C(=O)N[C@@H](C)C(=O)N[C@@H](CCC(=O)O)C(=O)N[C@@H](CO)C(=O)N[C@@H](Cc1ccccc1)C(N)=O [IK-1] (H-GLFDIIKKIIKKIAESF-NH2) | 8 µM | 8 µM | 8 µM | 16 µM | >128 µM | >128 µM | 16 µM | 16 µM | 16 µM | 32 µM | 8 µM | 8 µM | 3 ± 0.76 µM | 3.5 ± 0.74 µM | 3.4 ± 0.71 µM | 
2 | CC[C@H](C)[C@H](NC(=O)[C@H](CCCCN)NC(=O)[C@H](CCCCN)NC(=O)[C@@H](NC(=O)[C@@H](NC(=O)[C@H](CCCCN)NC(=O)[C@H](CCCCN)NC(=O)[C@@H](NC(=O)[C@@H](NC(=O)[C@H](CCCCN)NC(=O)[C@H](CCCCN)NC(=O)[C@@H](NC(=O)[C@@H](NC(=O)[C@H](CC(=O)O)NC(=O)[C@H](Cc1ccccc1)NC(=O)[C@H](CC(C)C)NC(=O)CN)[C@@H](C)CC)[C@@H](C)CC)[C@@H](C)CC)[C@@H](C)CC)[C@@H](C)CC)[C@@H](C)CC)C(=O)N[C@@H](C)C(=O)N[C@@H](CCC(=O)O)C(=O)N[C@@H](CO)C(=O)N[C@@H](Cc1ccccc1)C(N)=O [IK-2] (H-GLFDIIKKIIKKIIKKIAESF-NH2) | 8 µM | 8 µM | >128 µM | >128 µM | 16 µM | 16 µM | >128 µM | >128 µM | 64 µM | 128 µM | >128 µM | >128 µM | 3.2 ± 0.87 µM | 3.7 ± 0.77 µM | 3.6 ± 0.18 µM | 
3 | CC[C@H](C)[C@H](NC(=O)[C@H](CCCCN)NC(=O)[C@H](CCCCN)NC(=O)[C@@H](NC(=O)[C@@H](NC(=O)[C@H](CCCCN)NC(=O)[C@H](CCCCN)NC(=O)[C@@H](NC(=O)[C@@H](NC(=O)[C@H](CCCCN)NC(=O)[C@H](CCCCN)NC(=O)[C@@H](NC(=O)[C@@H](NC(=O)[C@H](CC(=O)O)NC(=O)[C@H](Cc1ccccc1)NC(=O)[C@H](CC(C)C)NC(=O)CN)[C@@H](C)CC)[C@@H](C)CC)[C@@H](C)CC)[C@@H](C)CC)[C@@H](C)CC)[C@@H](C)CC)C(N)=O [IK-3] (H-GLFDIIKKIIKKIIKKI-NH2) | 4 µM | 4 µM | 16 µM | 32 µM | 8 µM | 8 µM | 16 µM | 32 µM | 16 µM | 16 µM | 16 µM | 16 µM | 3.4 ± 0.71 µM | 2.99 µM | 3.3 ± 0.63 µM | 
4 | CC[C@H](C)[C@H](NC(=O)[C@H](CC(=O)O)NC(=O)[C@H](Cc1ccccc1)NC(=O)[C@H](CC(C)C)NC(=O)CN)C(=O)N[C@H](C(=O)N[C@@H](CCCCN)C(=O)N[C@@H](CCCCN)C(=O)N[C@@H](CC(C)C)C(=O)N[C@@H](C)C(=O)N[C@@H](CCC(=O)O)C(=O)N[C@@H](CO)C(=O)N[C@@H](Cc1ccccc1)C(N)=O)[C@@H](C)CC [KLA-1] (H-GLFDIIKKLAESF-NH2) | 8 µM | 16 µM | 32 µM | 32 µM | 32 µM | 32 µM | 16 µM | 32 µM | 64 µM | 128 µM | 16 µM | 16 µM | 17.6 ± 0.79 µM | 29.4 ± 0.22 µM | 34.1 ± 0.21 µM | Hemolysis (horse erythrocytes [7]): almost no hemolysis was detected
5 | CC[C@H](C)[C@H](NC(=O)[C@H](CC(=O)O)NC(=O)[C@H](Cc1ccccc1)NC(=O)[C@H](CC(C)C)NC(=O)CN)C(=O)N[C@H](C(=O)N[C@@H](CCCCN)C(=O)N[C@@H](CCCCN)C(=O)N[C@@H](CC(C)C)C(=O)N[C@@H](C)C(=O)N[C@@H](CCCCN)C(=O)N[C@@H](CC(C)C)C(=O)N[C@@H](C)C(=O)N[C@@H](CCC(=O)O)C(=O)N[C@@H](CO)C(=O)N[C@@H](Cc1ccccc1)C(N)=O)[C@@H](C)CC [KLA-2] (H-GLFDIIKKLAKLAESF-NH2) | 2 µM | 2 µM | 16 µM | 16 µM | 4 µM | 4 µM | 4 µM | 4 µM | 16 µM | 16 µM |  | 2/2 μM | 3.55 µM | 4.6 ± 0.12 µM | 5 ± 0.12 µM | MBIC [8]: 2 to 16 µM
6 | CC[C@H](C)[C@H](NC(=O)[C@H](CCCCN)NC(=O)[C@H](CCCCN)NC(=O)[C@@H](NC(=O)[C@@H](NC(=O)[C@H](CC(=O)O)NC(=O)[C@H](Cc1ccccc1)NC(=O)[C@H](CC(C)C)NC(=O)CN)[C@@H](C)CC)[C@@H](C)CC)C(=O)N[C@@H](C)C(=O)N[C@@H](CCC(=O)O)C(=O)N[C@@H](CO)C(=O)N[C@@H](Cc1ccccc1)C(N)=O [aurein 1.2] (H-GLFDIIKKIAESF-NH2) | 16 µM | 16 µM | 32 µM | 32 µM | 64 µM | 64 µM | 16 µM | 16 µM | 64 µM | 128 µM | 8 µM | 8 µM | 25.9 ± 0.79 µM | 26.9 µM | 38.4 µM | MICs against Gram-positive bacteria (Gram-positive bacteria): 8 to 32 µM; HC50 (horse erythrocytes [9]): around 30 μM; Hemolysis (horse erythrocytes [9]): 20.56%; concentration effective in prevention of biofilm formation (MBIC) [10]: 64 to 128 µM
